Source: patent US7632829B2, “Diazepan derivatives” (Hoffmann-La Roche Inc., priority 2006, dated 2009)

Target: T1, human chemokine receptor 2 isoform B (Homo sapiens, UniProt P41597)
T1 construct: host or cells: CHOK1-CCR2B-A5 (CHO-K1)
T1 sequence (P41597 1-360 isoform P41597-2): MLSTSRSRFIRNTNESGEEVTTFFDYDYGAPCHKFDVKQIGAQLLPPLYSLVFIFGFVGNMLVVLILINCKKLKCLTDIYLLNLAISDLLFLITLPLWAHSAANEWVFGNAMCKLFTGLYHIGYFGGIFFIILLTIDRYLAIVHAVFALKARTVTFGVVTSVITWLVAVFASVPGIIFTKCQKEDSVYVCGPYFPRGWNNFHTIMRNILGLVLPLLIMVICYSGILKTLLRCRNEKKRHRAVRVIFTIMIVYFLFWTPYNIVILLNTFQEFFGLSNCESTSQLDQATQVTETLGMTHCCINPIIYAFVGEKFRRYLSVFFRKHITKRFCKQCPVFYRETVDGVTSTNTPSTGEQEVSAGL
Assay: Calcium mobilization assay (FLIPR, CHOK1-CCR2B-A5 cells, 20 nM MCP-1)
Format: cell-based
Conditions: Ca mobilisation assay, CCR2, antagonist activity vs 20 nM MCP-1
Outline: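 FLIPR Fluo-4 calcium readout in CHO-K1 cells stably overexpressing human CCR2B; compounds first monitored 80 s for agonist activity, then after 20-30 min at 30 °C challenged with 20 nM MCP-1. Response is max minus basal fluorescence; antagonist value is concentration giving 50% inhibition of specific calcium increase.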

SMILES | IC50
C[C@H]1[C@H](O)CCCN1CC(O)CN1CCN(C(=O)/C=C/c2ccc(Cl)c(Cl)c2)CCC1=O (mixture of isomers) [Example 282] | 212 nM
COC1CCCN(CC(O)CN2CCN(C(=O)/C=C/c3ccc(Cl)c(Cl)c3)CCC2=O)C1 (racemic) [Example 283] | 311 nM
O=C(/C=C/c1ccc(Cl)c(Cl)c1)N1CCC(=O)N(CC(O)CN2CC[C@@H](F)[C@H](O)C2)CC1 (mixture of isomers) [Example 284] | 717 nM
CC1CCCN(CC(O)CN2CCN(C(=O)/C=C/c3ccc(Cl)c(Cl)c3)CCC2=O)C1 (racemic) [Example 288] | 206 nM
O=C(/C=C/c1ccc(Cl)c(Cl)c1)N1CCC(=O)N(CC(O)CN2CCCC(CO)C2)CC1 (racemic) [Example 289] | 296 nM
O=C(/C=C/c1ccc(Cl)c(Cl)c1)N1CCC(=O)N(CC(O)CN2CCCCC2CO)CC1 (racemic) [Example 290] | 199 nM
O=C(/C=C/c1ccc(Cl)c(Cl)c1)N1CCC(=O)N(CC(O)CN2CCC(CO)CC2)CC1 (racemic) [Example 291, (rac)-(1-[(E)-3-(3,4-Dichloro-phenyl)-acryloyl]-4-[2-hydroxy-3-(4-hydroxymethyl-piperidin-1-yl)-propyl]-[1,4]diazepan-5-one] | 404 nM
COCC1CCCN(CC(O)CN2CCN(C(=O)/C=C/c3ccc(Cl)c(Cl)c3)CCC2=O)C1 (racemic) [Example 293] | 1120 nM
CC(C)N1CCN(CC(O)CN2CCN(C(=O)/C=C/c3ccc(Cl)c(Cl)c3)CCC2=O)CC1 (racemic) [Example 296] | 298 nM
O=C(/C=C/c1ccc(Cl)c(Cl)c1)N1CCC(=O)N(CC(O)CN2CCN(C3CCCC3)CC2)CC1 (racemic) [Example 298] | 281 nM
CC1CN(CC(O)CN2CCN(C(=O)/C=C/c3ccc(Cl)c(Cl)c3)CCC2=O)CCC1O (racemic) [Example 300] | 981 nM
CC(C)N1CCN(CC(O)CN2CCN(C(=O)/C=C/c3ccc(Cl)c(Cl)c3)CCC2=O)CC1C (racemic) [Example 301] | 977 nM
CC1(O)CCCN(CC(O)CN2CCN(C(=O)/C=C/c3ccc(Cl)c(Cl)c3)CCC2=O)C1 (racemic) [Example 303] | 257 nM
CC1(CO)CCCN(CC(O)CN2CCN(C(=O)/C=C/c3ccc(Cl)c(Cl)c3)CCC2=O)C1 (racemic) [Example 305] | 192 nM
COCC1(C)CCCN(CC(O)CN2CCN(C(=O)/C=C/c3ccc(Cl)c(Cl)c3)CCC2=O)C1 (racemic) [Example 306] | 391 nM
O=C(/C=C/c1ccc(Cl)c(Cl)c1)N1CCC(=O)N(CC(O)CN2CCC3(CC3)C(O)C2)CC1 (racemic) [Example 309, (rac)-1-[(E)-3-(3,4-Dichloro-phenyl)-acryloyl]-4-[2-hydroxy-3-(4-hydroxy-6-aza-spiro[2.5]oct-6-yl)-propyl]-[1,4]diazepan-5-one] | 16 nM
C[C@@H]1CCN(CC(O)CN2CCN(C(=O)/C=C/c3ccc(Cl)c(Cl)c3)CCC2=O)C[C@H]1O (mixture of isomers) [Example 315, (rac)-1-[(E)-3-(3,4-Dichloro-phenyl)-acryloyl]-4-[2-hydroxy-3-(trans-3-hydroxy-4-methyl-piperidin-1-yl)-propyl]-[1,4]diazepan-5-one] | 717 nM
C[C@@H]1CN(CC(O)CN2CCN(C(=O)/C=C/c3ccc(Cl)c(Cl)c3)CCC2=O)CC[C@H]1O (mixture of isomers) [Example 316, (rac)-1-[(E)-3-(3,4-Dichloro-phenyl)-acryloyl]-4-[2-hydroxy-3-(trans-4-hydroxy-3-methyl-piperidin-1-yl)-propyl]-[1,4]diazepan-5-one] | 755 nM
O=C(/C=C/c1ccc(Cl)c(Cl)c1)N1CCC(=O)N(CC(O)CN2CCC(O)C3(CC3)C2)CC1 (racemic) [Example 317] | 528 nM

SMILES | IC50
C[C@@H]1CN(CC(O)CN2CCN(C(=O)C=Cc3ccc(Cl)c(Cl)c3)CCC2=O)CC[C@@H]1O (mixture of isomers) [Example 318] | 707 nM
CC1(CO)CCN(CC(O)CN2CCN(C(=O)/C=C/c3ccc(Cl)c(Cl)c3)CCC2=O)CC1 (racemic) [Example 319] | 265 nM
CN(CCO)CC(O)CN1CCN(C(=O)/C=C/c2ccc(Cl)c(Cl)c2)CCC1=O (racemic) [Example 320] | 1490 nM
CC1(CO)CCCN1CC(O)CN1CCN(C(=O)C=Cc2ccc(Cl)c(Cl)c2)CCC1=O (racemic) [Example 322] | 1200 nM
CC1(C)CN(CC(O)CN2CCN(C(=O)/C=C/c3ccc(Cl)c(Cl)c3)CCC2=O)CCC1O (racemic) [Example 324] | 215 nM
CC(C)CN1CCN(CC(O)CN2CCN(C(=O)C=Cc3ccc(Cl)c(Cl)c3)CCC2=O)CC1 (racemic) [Example 325] | 741 nM
O=C(/C=C/c1ccc(Cl)c(Cl)c1)N1CCC(=O)N(CC(O)CN2CCC3(CCCO3)CC2)CC1 (racemic) [Example 326] | 999 nM
CCN(CC)C1CCN(CCN2CCN(C(=O)/C=C/c3ccc(Cl)c(Cl)c3)CCC2=O)C1 (racemic) [Example 347] | 864 nM
CC1CCCN1CCN1CCN(C(=O)/C=C/c2ccc(Cl)c(Cl)c2)CCC1=O (racemic) [Example 348] | 765 nM
O=C(/C=C/c1ccc(Cl)c(Cl)c1)N1CCC(=O)N(CCN[C@@H]2CCCC[C@H]2O)CC1 (racemic) [Example 355] | 982 nM
CC1CN(CC(O)CCN2CCN(C(=O)/C=C/c3ccc(Cl)c(Cl)c3)CCC2=O)CCC1O (racemic) [Example 358] | 873 nM
CC1CCN(CC(O)CCN2CCN(C(=O)/C=C/c3ccc(Cl)c(Cl)c3)CCC2=O)CC1O (racemic) [Example 359] | 807 nM
COCC1CCN(CC(O)CCN2CCN(C(=O)/C=C/c3ccc(Cl)c(Cl)c3)CCC2=O)CC1 (racemic) [Example 360] | 179 nM
COCC1CCCN(CC(O)CCN2CCN(C(=O)/C=C/c3ccc(Cl)c(Cl)c3)CCC2=O)C1 (racemic) [Example 361] | 226 nM
CC1(CO)CCCCN1CC(O)CCN1CCN(C(=O)/C=C/c2ccc(Cl)c(Cl)c2)CCC1=O (racemic) [Example 363] | 73 nM
COC(=O)NC1CCN(CC(O)CCN2CCN(C(=O)/C=C/c3ccc(Cl)c(Cl)c3)CCC2=O)CC1 (racemic) [Example 364] | 531 nM
CC(=O)NC1CCN(CC(O)CCN2CCN(C(=O)/C=C/c3ccc(Cl)c(Cl)c3)CCC2=O)CC1 (racemic) [Example 370] | 341 nM
C[C@@H]1CN(CC(O)CCN2CCN(C(=O)/C=C/c3ccc(Cl)c(Cl)c3)CCC2=O)CC[C@H]1O (mixture of isomers) [Example 372, (rac)-1-[(E)-3-(3,4-Dichloro-phenyl)-acryloyl]-4-[3-hydroxy-4-(trans-4-hydroxy-3-methyl-piperidin-1-yl)-butyl]-[1,4]diazepan-5-one] | 1230 nM
O=C(/C=C/c1ccc(Cl)c(Cl)c1)N1CCC(=O)N(CCC(O)CN2CCCCC2CO)CC1 (racemic) [Example 374] | 580 nM

SMILES | IC50
CC1CCCCN1CC(O)CCN1CCN(C(=O)/C=C/c2ccc(Cl)c(Cl)c2)CCC1=O (racemic) [Example 375] | 274 nM
CC1CCCN(CC(O)CCN2CCN(C(=O)/C=C/c3ccc(Cl)c(Cl)c3)CCC2=O)C1 (racemic) [Example 376] | 416 nM
CC1CCN(CC(O)CCN2CCN(C(=O)/C=C/c3ccc(Cl)c(Cl)c3)CCC2=O)CC1 (racemic) [Example 377] | 697 nM
O=C(/C=C/c1ccc(Cl)c(Cl)c1)N1CCC(=O)N(CCC(O)CN2CCCC(CO)C2)CC1 (racemic) [Example 378] | 1240 nM
O=C(/C=C/c1ccc(Cl)c(Cl)c1)N1CCC(=O)N(CCC(O)CN2CCC(CO)CC2)CC1 (racemic) [Example 379] | 1500 nM
CC1(CO)CCCN1CC(O)CCN1CCN(C(=O)/C=C/c2ccc(Cl)c(Cl)c2)CCC1=O (racemic) [Example 381] | 236 nM
O=C(/C=C/c1ccc(F)c(Cl)c1)N1CCC(=O)N(CCCCN2CCCC(O)C2)CC1 (racemic) [Example 383] | 198 nM
O=C(/C=C/c1ccc(F)c(Cl)c1)N1CCC(=O)N(CCCCN2CCCC(CO)C2)CC1 (racemic) [Example 385] | 310 nM
O=C(/C=C/c1ccc(F)c(Cl)c1)N1CCC(=O)N(CCCCN2CCCCC2CO)CC1 (racemic) [Example 387] | 584 nM
O=C(/C=C/c1ccc(F)c(Cl)c1)N1CCC(=O)N(CCCCN2CC[C@H](O)[C@H](F)C2)CC1 (racemic) [Example 390] | 1100 nM
COCC1CCCN(CCCCN2CCN(C(=O)/C=C/c3ccc(F)c(Cl)c3)CCC2=O)C1 (racemic) [Example 392] | 54 nM
O=C(/C=C/c1ccc(F)c(Cl)c1)N1CCC(=O)N(CCCCN2CCC(O)C2)CC1 (racemic) [Example 393] | 878 nM
O=C(/C=C/c1ccc(F)c(Cl)c1)N1CCC(=O)N(CCCCN2CC[C@@H](O)[C@H](F)C2)CC1 (racemic) [Example 394] | 551 nM
COC1CCCN(CCCCN2CCN(C(=O)/C=C/c3ccc(F)c(Cl)c3)CCC2=O)C1 (racemic) [Example 395] | 996 nM
CC1CN(CCCCN2CCN(C(=O)/C=C/c3ccc(F)c(Cl)c3)CCC2=O)CCC1O (racemic) [Example 400] | 264 nM
CC1(CO)CCCCN1CCCCN1CCN(C(=O)/C=C/c2ccc(F)c(Cl)c2)CCC1=O (racemic) [Example 407] | 264 nM
CC1CCC(O)CN1CCCCN1CCN(C(=O)/C=C/c2ccc(Cl)c(F)c2)CCC1=O (racemic) [Example 413] | 77 nM
O=C(/C=C/c1ccc(Cl)c(F)c1)N1CCC(=O)N(CCCCN2CC(O)CCC2CO)CC1 (racemic) [Example 414] | 65 nM
